Experimental findings from patent US9474277B2, “Pyrazole compound and pesticidal mixtures comprising a pyrazole compound” (BASF SE, priority 2012, dated 2016) are described below.

Where two headings read alike, the source gives them in different places.

For data set [1], the system named is Rice Plant Hopper (Nilaparvata lugens). Nature of the data set: B.7 Rice plant hopper test on sprayed rice seedlings. It is filed as in vivo. To be noted: 500 ppm, after 72 hours. Here is the method: B.7 Rice Plant Hopper (Nilaparvata lugens)
Rice seedlings were cleaned and washed 24 hours before spraying. The active compounds were formulated in 50:50 acetone: water and 0.1% vol/vol surfactant (EL 620) was added. Potted rice seedlings were sprayed with 5 ml test solution, air dried, placed in cages and inoculated with 10 adults. Treated rice plants were kept at 28-29° C. and relative humidity of 50-60%. Percent mortality was recorded after 72 hours.

Data set [2] concerns Rice Green Leafhopper (Nephotettix virescens). The data set is described as follows: B.9 Rice green leafhopper test on sprayed rice seedlings. The class given is in vivo. The conditions noted are these: 500 ppm, after 72 hours. Here is the method: B.9 Rice Green Leafhopper (Nephotettix virescens)
Rice seedlings were cleaned and washed 24 hours before spraying. The active compounds were formulated in 50:50 acetone: water, and 0.1% vol/vol surfactant (EL 620) was added. Potted rice seedlings were sprayed with 5 ml test solution, air dried, placed in cages and inoculated with 10 adults. Treated rice plants were kept at 28-29° C. and relative humidity of 50-60%. Percent mortality was recorded after 72 hours.

Data set [3] has as its system Puccinia recondita. The data set is described as follows: Test 11 - Control of brown rust on wheat, seed treatment. The class given is in vivo. The conditions noted are these: single active, untreated 90% disease. Here is the method:
Test 11—Control of Brown Rust on Wheat Caused by Puadnia recondita
Seeds of wheat were treated in a treater as standard equipment. The products and concentrations are listed below. At the same day the plants were seeded in pots. 14 days later at 19° C. and 70% humidity the plants were inoculated with spores of Puccinia recondita. To ensure the success the artificial inoculation, the plants were transferred to a humid chamber without light and a relative humidity of 95 to 99% and 20 to 24° C. for 24 h. Then the trial plants were cultivated for 6 days in a greenhouse chamber at 20-24° C. and a relative humidity between 65 and 70%. The extent of fungal attack on the leaves was visually assessed as % diseased leaf area.

The test system of data set [4] is Altemaria solani. To be noted: single active compound, 7 days after inoculation.
Data set [5] has as its system Blumeria graminis f. sp. tritici. Nature of the data set: Test 12 - Control of powdery mildew on wheat, seed treatment. It is filed as in vivo. To be noted: single active, untreated 82% disease. Here is the method:
Test 12—Control of Powdery Mildew on Wheat Caused by Blumeria graminis f. sp. tritici
Seeds of wheat were treated in a treater as standard equipment. The products and concentrations are listed below. At the same day the plants were seeded in pots. 14 days later at 19° C. and 70% humidity the plants were inoculated with spores of Blumeria graminis f. sp. tritici (=syn. Erysiphe garminis f. sp. tritici) by shaking heavily infestated stock plants over the treated pots. After cultivation in the greenhouse for 7 days at 22-26° C. and a relative humidity between 60 to 90% the extent of fungal attack on the leaves was visually assessed as % diseased leaf area.

Data set [6] relates to Rhizoctonia solani. Nature of the data set: Test 10 - Control of Rhizoctonia solani, corn seed treatment, plant height. The class given is in vivo. The conditions noted are these: single active compound, 14 days. Here is the method:
Test 10—Control of Rhizoctonia solani
The compounds were dissolved in Acetone. Seeds of com were treated in a treater as standard equipment. The products and concentrations are listed below. After the treatment the seeds were sown in pots, and rye seeds (infected with Rhizoctonia solani) were placed next to the seeds (1 seed per corn seed).
After cultivation in the greenhouse for 14 days at 20° C. and a relative humidity of 70% the plant height of the plants were measured.

Data set [7] has as its system Greenbug Aphid, Schizaphis graminum. Nature of the data set: Test 13 - Activity against greenbug aphid, wheat seed treatment. The class given is in vivo. To be noted: single active, aphids counted 4 DAI. Here is the method:
Test 13—Activity Against Greenbug Aphid, Schizaphis graminum: Wheat seed treatment
Technical material was dissolved in acetone at sub-lethal doses. 50 μL of solution was added to a 20-ml scintillation vial, 15 wheat seeds were added, and the seeds were coated by vortexing the vial for 1 minute. The seeds were allowed to dry and planted later the same day. Seeds were planted individually in a moistened, fertilized soil mixture of 1:1 North Carolina loamy sand (Sandhill soil):play sand in 40.32 cm^2 pots. Pots were arranged in a randomized complete block design in the greenhouse and top-watered daily. Plant emergence and shoot phytotoxicity were evaluated 4, 7, and 14 days after treatment (DAT). At 14 DAT (true leaf stage), each plant was infested with 10 greenbug aphids (Schizaphis graminum) of mixed stages. Plants were maintained on light carts in a randomized complete block design and bottom-watered as needed. Twelve replicates (pots) were prepared for plant emergence and five replicates were prepared for infestation. Live aphids were counted 4 DAI and the mean percent population reduction relative to the solvent blank control was calculated.

Regarding `CCN(C(=O)c1cnn(C2CC3(C2)OCCO3)c1C)c1ccnnc1` [Compound C-15], the “mortality in comparison with untreated controls” value in data set [1] is recorded as 75%.

For the compound `CCN(C(=O)c1cnn(C(C)C2CC23CC3)c1C)c1ccnnc1` (stereo not shown) [Compound C-26], the “mortality in comparison with untreated controls” value in data set [2] is on record as “at least 75%”.

Turning to `CCN(C(=O)c1cnn(C(C)C(C)C)c1C)c1ccnnc1` (stereo not shown) [Compound I-674], the “Observed efficacy (%)” value came to 0% in data set [3] (250 g a.i./100 kg seeds); 9% in data set [5] (4 g a.i./100 kg seeds); 21% in data set [5] (250 g a.i./100 kg seeds); 5% in data set [6] (63 g a.i./100 kg seeds); 21% in data set [7] (table with fungicides F.1 to F.11, 33.7 g a.i./100 kg seeds); 28% in data set [7] (table with insecticides A.1 to A.17, 33.7 g a.i./100 kg seeds). Further, the Observed efficacy in data set [4] (63 ppm) came out at 1%.

As to `CCN(C(=O)c1cnn(C(C)C(F)F)c1C)c1ccnnc1` (stereo not shown) [Compound I-680], the “Observed efficacy (%)” value in data set [3] (250 g a.i./100 kg seeds) worked out at 0%; in data set [5] (250 g a.i./100 kg seeds), 15%; in data set [6] (63 g a.i./100 kg seeds), 0%; in data set [7] (table with fungicides F.1 to F.11, 2.9 g a.i./100 kg seeds) it was 7%; in data set [7] (table with insecticides A.1 to A.17, 2.9 g a.i./100 kg seeds) it was 23%. The compound also had an Observed efficacy in data set [4] (63 ppm) of 3%.

Turning to `CCN(C(=O)c1cnn(C(C)C2(C#N)CC2)c1C)c1ccnnc1` (stereo not shown) [Compound I-698], the “Observed efficacy (%)” value in data set [3] (63 g a.i./100 kg seeds) turned out to be 4%; in data set [5] (250 g a.i./100 kg seeds), 15%; in data set [6] (250 g a.i./100 kg seeds) it was 3%; in data set [7] (table with fungicides F.1 to F.11, 150 g a.i./100 kg seeds), 51%; in data set [7] (table with insecticides A.1 to A.17, 150 g a.i./100 kg seeds), 74%. For the same compound, the Observed efficacy in data set [4] (1 ppm) worked out at 7%; in data set [4] (63 ppm), 3%.

The compound `N#Cc1c[nH]cc1-c1cccc2c1OC(F)(F)O2` [Fludioxonil, 4-(2,2-difluorobenzo[1,3]dioxol-4-yl)-1H-pyrrole-3-carbonitrile, reference compound] gave an Observed efficacy in data set [4] (0.063 ppm) of 26%.

In the case of `Cn1cc(C(=O)Nc2ccccc2-c2cc(F)c(F)c(F)c2)c(C(F)F)n1` [Fluxapyroxad, reference compound], the “Observed efficacy (%)” value in data set [3] (1 g a.i./100 kg seeds) is 16%; in data set [6] (4 g a.i./100 kg seeds), 74%; in data set [7] (table with fungicides F.1 to F.11, 20 g a.i./100 kg seeds), 0%.

On to `COCC(=O)N(c1c(C)cccc1C)[C@H](C)C(=O)OC` [Mefenoxam, reference compound], for which the “Observed efficacy (%)” value in data set [5] (4 g a.i./100 kg seeds) is reported as 0%; in data set [6] (63 g a.i./100 kg seeds) it was 0%; in data set [7] (table with fungicides F.1 to F.11, 15 g a.i./100 kg seeds) it was 6%.

In data set [4] (0.016 ppm), `COC(=O)N(OC)c1ccccc1COc1ccn(-c2ccc(Cl)cc2)n1` [Pyraclostrobin, methyl N-{2-[1-(4-chlorophenyl)-1H-pyrazol-3-yloxymethyl]phenyl}(N-methoxy)carbamate, reference compound] returned an Observed efficacy of 16%. Moreover, the “Observed efficacy (%)” value in data set [6] (63 g a.i./100 kg seeds) worked out at 49%.

For `c1ccc2[nH]c(-c3cscn3)nc2c1` [Thiabendazol], in data set [5] (250 g a.i./100 kg seeds), the “Observed efficacy (%)” value turned out to be 2%.

For the compound `CC1(C)CC/C(=C\c2ccc(Cl)cc2)C1(O)Cn1cncn1` (stereo not shown) [Triticonazol, (5E)-5-[(4-chlorophenyl)methylene]-2,2-dimethyl-1-(1H-1,2,4-triazol-1-ylmethyl)cyclopentanol, reference compound], the “Observed efficacy (%)” value came out at 49% in data set [3] (16 g a.i./100 kg seeds), 60% in data set [5] (16 g a.i./100 kg seeds) and 20% in data set [6] (16 g a.i./100 kg seeds). Also, the Observed efficacy in data set [4] (0.063 ppm) came out at 27%.

`CNC(=O)c1cc(Cl)cc(C)c1NC(=O)c1cc(Br)nn1-c1ncccc1Cl` [chloranthraniliprole]: the “Observed efficacy (%)” value in data set [7] (table with insecticides A.1 to A.17, 75 g a.i./100 kg seeds) came out at 30%.
